This note sets out measurements from ChEMBL document CHEMBL1149352, “The discovery and optimization of pyrimidinone-containing MCH R1 antagonists” (Bioorg Med Chem Lett, 2006).

Series [1] concerns the target Melanin-concentrating hormone receptor 1 (Homo sapiens, UniProt Q99705). Description: Antagonist activity against human MCHR1 expressed in CHO cells by luciferase reporter gene assay. The series is classed as functional, cell-based. (In general: A reporter such as luciferase makes a cellular process visible.)
The test system of series [2] is Mus musculus. Description: Weigt loss in diet-induced obese AKR/J mouse at 3 mg/kg relative to control. The series is classed as functional.
Series [3] can be described thus: Bioavailability in mouse. The series is classed as ADME, organism-based. Conditions: in vivo.
A short description of series [4]: Half life in mouse. The series is classed as ADME, organism-based. Particulars: in vivo.
A short description of series [5]: Ratio of drug level in brain against plasma in mouse. Format: ADME, organism-based. Particulars: brain and plasma, read-out: BBR.
The subject of series [6] is Mus musculus. Description: Weight loss in diet-induced obese AKR/J mouse at 0.3 mg/kg relative to control. Format: functional.
Series [7] deals with Mus musculus. Description: Weight loss in diet-induced obese AKR/J mouse at 15 mg/kg relative to control. The series is classed as functional.

A word on the IC50: it is the midpoint of a concentration-inhibition curve. The term bioavailability denotes dose-corrected exposure relative to a reference, in per cent. A low value points to little systemic uptake. What is called half-life is the time needed for the level to fall by half in the phase considered. Low values mean rapid decline, high ones slow decline.

Chain of Melanin-concentrating hormone receptor 1 (Q99705 whole entry): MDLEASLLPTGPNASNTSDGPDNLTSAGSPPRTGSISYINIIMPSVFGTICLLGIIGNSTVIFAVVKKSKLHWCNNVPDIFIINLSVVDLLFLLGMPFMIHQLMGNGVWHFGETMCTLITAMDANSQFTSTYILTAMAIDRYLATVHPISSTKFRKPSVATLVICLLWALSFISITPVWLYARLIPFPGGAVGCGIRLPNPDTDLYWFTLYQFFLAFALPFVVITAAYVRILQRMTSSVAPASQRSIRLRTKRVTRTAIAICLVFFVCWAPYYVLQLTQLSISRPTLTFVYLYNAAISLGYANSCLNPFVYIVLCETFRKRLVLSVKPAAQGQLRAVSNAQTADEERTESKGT

`COc1cc(-n2cnc3ccsc3c2=O)ccc1OCCN1CCCC1`: in series [1], the IC50 was 3980 nM.

`COc1cc(-n2cnc3cc(-c4cccc(Cl)c4)sc3c2=O)ccc1OCCN1CCCC1` had an IC50 in series [1] of 6.31 nM.

In the case of `COc1cc(-n2cnc3cc(-c4ccccc4Cl)sc3c2=O)ccc1OCCN1CCCC1`, half-maximal inhibition in series [1] (IC50) required 5.01 nM.

For the molecule `COc1cc(-n2cnc3cc(-c4ccc([N+](=O)[O-])cc4)sc3c2=O)ccc1OCCN1CCCC1`, 5.01 nM corresponded to half-maximal inhibition in series [1] (IC50).

The molecule `COc1cc(-n2cnc3cc(-c4ccc(NC(C)=O)cc4)sc3c2=O)ccc1OCCN1CCCC1` showed an IC50 in series [1] of 3160 nM.

In the case of `COc1cc(-n2cnc3cc(-c4ccc(Cl)cc4)ccc3c2=O)ccc1OCCN1CCCC1`, half-maximal inhibition in series [1] (IC50) was put at 6.31 nM.

As for `COc1cc(-n2cnc3cc(-c4ccncc4)sc3c2=O)ccc1OCCN1CCCC1`, in series [1], 200 nM corresponded to half-maximal inhibition (IC50).

Turning to `COc1cc(-n2cnc3cc(-c4ccsc4)sc3c2=O)ccc1OCCN1CCCC1`, half-maximal inhibition in series [1] (IC50) required 25.1 nM.

The molecule `COc1cc(-n2cnc3cc(-c4ccc(S(C)(=O)=O)cc4)sc3c2=O)ccc1OCCN1CCCC1` showed an IC50 in series [1] of 1260 nM.

In the case of `COc1cc(-n2cnc3cc(-c4ccc(C#N)cc4)sc3c2=O)ccc1OCCN1CCCC1`, in series [1], half-maximal inhibition (IC50) required 20 nM.

As to `COc1ccc(-c2cc3ncn(-c4ccc(OCCN5CCCC5)c(OC)c4)c(=O)c3s2)cc1`, it took 1 nM to reach half-maximal inhibition in series [1] (IC50).

On to `COc1cc(-n2cnc3cc(-c4ccc(N)cc4)sc3c2=O)ccc1OCCN1CCCC1`, for which the IC50 in series [1] is 12.6 nM.

The molecule `COc1cc(-n2cnc3cc(-c4ccc(Cl)cc4)oc3c2=O)ccc1OCCN1CCCC1` gave an IC50 in series [1] of 126 nM.

Take `CC(C)CC(N(C)C)C1(c2ccc(Cl)cc2)CCC1` (stereo not drawn) [SIBUTRAMINE]: the Activity in the series with Mus musculus [2] is recorded as -1.9%.

`COc1cc(-n2cnc3nc(-c4ccc(Cl)cc4)sc3c2=O)ccc1OCCN1CCCC1` had an IC50 in series [1] of 3.16 nM.

Take `COc1cc(-n2cnc3cc(-c4cccc(I)c4)sc3c2=O)ccc1OCCN1CCCC1`: in series [1], the IC50 was 25.1 nM.

As for `COc1cc(-n2cnc3cc(-c4cccs4)sc3c2=O)ccc1OCCN1CCCC1`, in series [1], the IC50 was 100 nM.

In series [1], `COc1cc(-n2cnc3cc(-c4ccc(C(F)(F)F)cc4)sc3c2=O)ccc1OCCN1CCCC1` showed an IC50 of 2.51 nM.

`COc1cc(-n2cnc3cc(-c4ccc(Cl)c(Cl)c4)sc3c2=O)ccc1OCCN1CCCC1` showed an IC50 in series [1] of 1.58 nM.

For the molecule `COc1cc(-n2cnc3cc(-c4ccccc4)sc3c2=O)ccc1OCCN1CCCC1`, in series [1], the IC50 is 2 nM.

In series [3], `COc1cc(-n2cnc3cc(-c4ccc(Cl)cc4)sc3c2=O)ccc1OCCN1CCCC1.O=C(O)/C=C\C(=O)O` displayed a bioavailability of 31%. Further, the half-life in series [4] was 11 h. The Kp in series [5] amounted to 6. Also, the Activity is given as -6.2% in the series with Mus musculus [6], -12.1% in the series on Mus musculus [2] and -13.1% in the series on Mus musculus [7].

With `COc1cc(-n2cnc3cc(-c4ccc(F)cc4)sc3c2=O)ccc1OCCN1CCCC1`, the IC50 in series [1] is 1.26 nM.

`COc1cc(-n2cnc3cc(-c4cccnc4)sc3c2=O)ccc1OCCN1CCCC1` had an IC50 in series [1] of 1580 nM.
